Reference: patent publication US5958965A, “4-aminoethoxy indoles” (American Home Products Corporation, priority 1997, dated 1999)
Read-outs that look alike come from different tables or passages of the source.

What was measured:
[1] = target: T1, dopamine D-2 receptor (Rattus norvegicus, UniProt P61169); assay: Affinity for the dopamine D-2 receptor, 3H-spiroperidol binding in homogenized limbic brain tissue
T1 construct: homogenized limbic brain tissue is incubated with; from tissue; host or cells: limbic brain tissue, homogenized
T1 sequence (P61169 whole entry): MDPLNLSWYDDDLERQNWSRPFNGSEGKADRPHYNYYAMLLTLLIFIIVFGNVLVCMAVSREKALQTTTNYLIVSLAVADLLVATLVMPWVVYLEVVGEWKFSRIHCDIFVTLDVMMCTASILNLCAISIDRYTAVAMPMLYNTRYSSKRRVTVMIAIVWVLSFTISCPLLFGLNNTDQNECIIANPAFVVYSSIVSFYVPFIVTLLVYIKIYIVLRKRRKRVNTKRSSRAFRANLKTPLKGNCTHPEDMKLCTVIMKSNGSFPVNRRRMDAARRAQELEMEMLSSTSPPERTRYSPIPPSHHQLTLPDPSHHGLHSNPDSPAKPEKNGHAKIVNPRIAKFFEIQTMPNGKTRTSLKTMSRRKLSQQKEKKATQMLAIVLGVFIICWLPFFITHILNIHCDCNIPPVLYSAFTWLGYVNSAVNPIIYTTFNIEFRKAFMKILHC

[2] = target: T2, 5-HT1A serotonin receptor (Rattus norvegicus, UniProt P19327); assay: Displacement of [3H] 8-OHDPAT from the 5-HT1A serotonin receptor; type: binding
T2 sequence (P19327 1-422): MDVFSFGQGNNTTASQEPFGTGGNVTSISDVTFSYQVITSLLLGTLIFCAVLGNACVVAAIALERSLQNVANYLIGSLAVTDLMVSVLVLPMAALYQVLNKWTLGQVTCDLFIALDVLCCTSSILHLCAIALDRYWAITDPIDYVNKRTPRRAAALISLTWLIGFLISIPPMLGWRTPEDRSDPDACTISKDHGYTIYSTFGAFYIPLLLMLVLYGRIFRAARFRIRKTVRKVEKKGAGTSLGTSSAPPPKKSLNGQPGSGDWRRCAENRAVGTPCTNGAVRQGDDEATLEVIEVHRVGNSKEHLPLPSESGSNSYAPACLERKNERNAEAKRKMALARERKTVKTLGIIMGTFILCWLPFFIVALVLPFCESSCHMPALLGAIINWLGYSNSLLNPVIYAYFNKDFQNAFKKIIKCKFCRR
From the text: High affinity for the serotonin 5-HT1A receptor was established by testing the claimed compound's ability to displace [^3 H] 8-OHDPAT (dipropylaminotetralin) from the 5-HT1A serotonin receptor following the procedure of Hall et al., J. Neurochem. 44, 1685 (1985). […] The anxiolytic activity of buspirone is believed to be, at least partially, due to its 5-HT1A receptor affinity (Vander Maclen et al., Eur. J. Pharmacol. 1986, 129 (1-2) 133-130).

[3] = target: T2, 5-HT1A serotonin receptor; conditions: standard for anxiolytic activity, comparison substance; cited from earlier work
[4] = 3H-spiroperidol, limbic brain tissue, read-out: IC50 D2 Spiper

c1ccc(CCCCNCCOc2cccc3[nH]ccc23)cc1 [Example 1a, [2-(1 H-Indol-4-yloxy)-ethyl]-(4-phenyl-butyl)-amine]
IC50 [1]: 184 nM | IC50 [2]: 0.71 nM

Clc1c[nH]c2cccc(OCCNCCCCc3ccccc3)c12 [Example 2a, [2-(3-Chloro-1H-indol-4-yloxy)-ethyl]-(4-phenyl-butyl)-amine]
IC50 [1, 4]: 193 nM | IC50 [2]: 0.99 nM

O=C(c1c[nH]c2c(Cl)ccc(OCCNCc3ccccc3)c12)C(F)(F)F [Example 2c, 1-[4-(2-Benzylamino-ethoxy)-7-chloro-1H-indol-3-yl]-2,2,2-trifluoro-ethanone]
IC50 [2]: 102 nM

Clc1ccc(OCCNCc2ccccc2)c2cc[nH]c12 [Example 1b, Benzyl-[2-(7-chloro-1H-indol-4-yloxy)-ethyl]-amine]
IC50 [1]: 183 nM | IC50 [2]: 386 nM

Clc1ccc(OCCNCc2cccs2)c2c(Cl)c[nH]c12 [Example 1f, Thien-2-ylmethyl-[2-(3,7-dichloro-1H-indol-4-yloxy)-ethyl]-amine]
IC50 [1, 4]: 405 nM

c1ccc(CNCCOc2cccc3[nH]ccc23)cc1 [Example 3b, N-Benzyl-[2-(1H-indol-4-yloxy)]-ethylamine]
IC50 [1]: 501 nM | IC50 [2]: 36 nM

O=C(c1c[nH]c2cccc(OCCNCc3ccccc3)c12)C(F)(F)F [Example 3a, 1-[4-(2-Benzylamino-ethoxy)-1H-indol-3-yl]-2,2,2-trifluoro-ethanone]
IC50 [1, 4]: 286 nM | IC50 [2]: 60 nM

O=C1CC2(CCCC2)CC(=O)N1CCCCN1CCN(c2ncccn2)CC1 [buspirone]
affinity for the 5-HT1A serotonin receptor [3]: potent affinity

Clc1ccc(OCCNCc2ccccc2)c2c(Cl)c[nH]c12 [Example 1c, Benzyl-[2-(3,7-dichloro-1H-indol-4-yloxy)-ethyl]-amine]
IC50 [1, 4]: 284 nM | IC50 [2]: 438 nM
